Assays:
IBABP-L mRNA = assay: Regulation of IBABP-L expression in Caco-2 cells, quantitative RT-PCR; assay type: cell-based, human; settings: 24 h, normalized to ARPP0
Description: (§1) The expression of IBABP-L and IBABP was measured by quantitative RT-PCR. The mRNA copy number of each variant is normalized to the expression the housekeeping gene ARPP0. Values in the figure represent the average of three experiments with each replicate performed in duplicate.
(§2) To determine the relative expression levels of IBABP-L and IBABP, a two-step quantitative RT-PCR procedure was used. In the first step, complementary DNA (cDNA) was synthesized from total RNA. […] In the second step, quantitative PCT (QPCR) was carried out on a Mx 3000P Real-Time PCR System (Stratagene, La Jolla, Calif.) using a solution containing diluted cDNA (1:20; 2.0 μl), 1×SYBR Green PCR Master Mix (Applied Biosystems, Foster City, Calif.), and primers for IBABP-L, IBABP, or ARPP0 (0.25 μM). […]
(§3) Caco-2 cells were seeded in six-well plates (Falcon) at 2×10^5 cells/well. […] Cells were harvested, cellular RNA was isolated using the RNeasy Mini Kit (Qiagen) according to manufacturer instruction, and expression of IBABP variants was determined by QPCR as described above. […]

BAR = target: T1, BAR (Homo sapiens, UniProt Q96RI1); settings: gene-selective BAR modulator; cited from earlier work
T1 sequence (Q96RI1 1-486): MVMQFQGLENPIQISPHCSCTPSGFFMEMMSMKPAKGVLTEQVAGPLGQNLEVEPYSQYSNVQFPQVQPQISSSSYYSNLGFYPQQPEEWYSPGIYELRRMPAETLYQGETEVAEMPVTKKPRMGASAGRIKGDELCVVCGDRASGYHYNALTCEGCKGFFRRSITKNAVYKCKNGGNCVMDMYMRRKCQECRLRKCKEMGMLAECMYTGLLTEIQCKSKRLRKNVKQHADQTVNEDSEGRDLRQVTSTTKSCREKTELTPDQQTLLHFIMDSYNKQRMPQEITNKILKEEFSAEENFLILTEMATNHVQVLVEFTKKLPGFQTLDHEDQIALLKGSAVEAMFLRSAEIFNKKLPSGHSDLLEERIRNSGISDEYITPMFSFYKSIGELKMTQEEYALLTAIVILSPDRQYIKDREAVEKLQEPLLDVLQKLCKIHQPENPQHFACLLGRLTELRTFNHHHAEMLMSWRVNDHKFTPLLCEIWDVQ

IBABP mRNA = assay: Regulation of IBABP expression in Caco-2 cells, quantitative RT-PCR; assay type: cell-based, human; settings: 100 nM, 24 h, normalized to ARPP0
Description: as §1, §2, §3

C[C@H](CCC(=O)O)[C@H]1CC[C@H]2[C@@H]3[C@H](O)C[C@@H]4C[C@H](O)CC[C@]4(C)[C@H]3CC[C@]12C [CDCA, chenodeoxycholic acid]
effect on expression of IBABP-L (IBABP-L mRNA; 100 μM): without effect

CCCCCCOc1c(\C(C)=C/C=C/C(C)=C/C(=O)O)cc(C(C)C)cc1C(C)C [AGN34]
action on CYP7A1 (BAR): agonist | action on IBABP (BAR): antagonist | action on SHP (BAR): neutral

CC1=C(/C=C/C(C)=C\C=C\C(C)=C\C(=O)O)C(C)(C)CCC1 [9cRA, 9-cis-retinoic acid]
effect on expression of IBABP-L (IBABP-L mRNA; 100 nM): without effect | effect on expression of IBABP (IBABP mRNA): up-regulated
